From patent publication US10034476B2, “Insecticidal phenyl-or pyridyl-piperdine compounds” (Syngenta Participations AG, priority 2008, dated 2018)
Structures can show the parent of a compound that is named as a salt.

What was measured:
Assay type in all cases: in vivo
Spodoptera littoralis = Spodoptera littoralis (Egyptian cotton leafworm) cotton leaf disc spray test; details: foliar, 72 h, 200 ppm spray on cotton leaf discs, L1 larvae, 3 DAT, mortality, feeding behavior, growth regulation
Source text: Spodoptera littoralis (Egyptian Cotton Leafworm) Cotton leaf discs were placed on agar in a 24-well microtiter plate and sprayed with test solutions at an application rate of 200 ppm. After drying, the leaf discs were infested with 5 L1 larvae. The samples were checked for mortality, feeding behavior, and growth regulation 3 days after treatment (DAT).

Heliothis virescens = Heliothis virescens (tobacco budworm) egg/artificial diet test; details: 96 h, 200 ppm (concentration in well 18 ppm), eggs 0-24 h old on artificial diet, 4 days, egg mortality, larval mortality, growth regulation
Procedure: Heliothis virescens (Tobacco Budworm): Eggs (0-24 h old) were placed in 24-well microtiter plate on artificial diet and treated with test solutions at an application rate of 200 ppm (concentration in well 18 ppm) by pipetting. After an incubation period of 4 days, samples were checked for egg mortality, larval mortality, and growth regulation.

Plutella xylostella = Plutella xylostella (diamond back moth) artificial diet test; details: 144 h, 200 ppm (concentration in well 18 ppm), L2 larvae, 6 days, larval mortality, growth regulation
Procedure: Plutella xylostella (Diamond Back Moth): 24-well microtiter plate (MTP) with artificial diet was treated with test solutions at an application rate of 200 ppm (concentration in well 18 ppm) by pipetting. After drying, the MTP's were infested with L2 larvae (7-12 per well). After an incubation period of 6 days, samples were checked for larval mortality and growth regulation.

Diabrotica balteata = Diabrotica balteata (corn root worm) artificial diet test; details: 120 h, 200 ppm (concentration in well 18 ppm), L2 larvae, 5 days, larval mortality, growth regulation
Procedure: Diabrotica Balteata (Corn Root Worm): A 24-well microtiter plate (MTP) with artificial diet was treated with test solutions at an application rate of 200 ppm (concentration in well 18 ppm) by pipetting. After drying, the MTP's were infested with larvae (L2) (6-10 per well). After an incubation period of 5 days, samples were checked for larval mortality, and growth regulation.

Measured: pest or weed control at 200 ppm

O=C(Nc1cc(F)c(F)c(F)c1C1CC[N+]([O-])(Cc2ccc(-c3ccc(F)cc3)cc2)CC1)c1ccnc(Cl)c1 (stereo not drawn) [Compound G1, 2-chloro-N-{3,4,5-trifluoro-2-[1-(4′-fluoro-biphenyl-4-ylmethyl)-piperidin-4-yl]-phenyl}-isonicotinamide N-oxide]
≥ 80%: all assays above

O=C(Nc1cc(Cl)c(C2CC2)nc1C1CCN(Cc2ccc(-c3ccc(F)cc3)cc2)CC1)c1ccnc(Cl)c1 [Compound C13, 2-chloro-N-[5-chloro-6-cyclopropyl-1′-(4′-fluoro-biphenyl-4-ylmethyl)-1′,2′,3′,4′,5′,6′-hexahydro-[2,4′]bipyridinyl-3-yl]-isonicotinamide]
≥ 80%: all assays above

O=C(Nc1cc(C(F)(F)F)c(F)nc1C1CCN(Cc2ccc(-c3ccc(F)cc3)cc2)CC1)c1ccnc(Cl)c1 [Compound C31, 2-chloro-N-{1′-(4′-fluoro-biphenyl-4-ylmethyl)-6-fluoro-5-trifluoromethyl-1′,2′,3′,4′,5′,6′-hexahydro-[2,4′]bipyridinyl-3-yl}-isonicotinamide]
≥ 80%: all assays above

O=C(Nc1cc(Cl)c(Cl)nc1C1CCN(Cc2ccc(-c3ccc(F)cc3)cc2)CC1)c1ccnc(Cl)c1 [Compound M1, hydrochloride]
≥ 80%: all assays above

O=C(Nc1cc(Cl)c(OCC(F)(F)F)nc1C1CCN(Cc2ccc(-c3ccc(F)cc3)cc2)CC1)c1ccnc(Cl)c1 [Compound C9, 2-chloro-N-[5-chloro-1′-(4′-fluoro-biphenyl-4-ylmethyl)-6-(2,2,2-trifluoro-ethoxy)-1′,2′,3′,4′,5′,6′-hexahydro-[2,4′]bipyridinyl-3-yl]-isonicotinamide]
≥ 80%: all assays above

O=C(Nc1cc(C(F)(F)F)c(Cl)nc1C1CCN(Cc2ccc(-c3ccc(F)cc3)cc2)CC1)c1ccnc(Cl)c1 [Compound C16]
≥ 80%: all assays above

O=C(Nc1cc(F)c(F)c(F)c1C1CCN(Cc2ccc(-c3ccc(F)cc3)cc2)CC1)c1ccnc(Cl)c1 [Compound E1, 2-chloro-N-{3,4,5-trifluoro-2-[1-(4′-fluoro-biphenyl-4-ylmethyl)-piperidin-4-yl]-phenyl}-isonicotinamide]
≥ 80%: all assays above

O=C(Nc1cc(F)c(F)nc1C1CCN(Cc2ccc(-c3ccc(F)cc3)cc2)CC1)c1ccnc(Cl)c1 [Compound C25, 2-chloro-N-{1′-(4′-fluoro-biphenyl-4-ylmethyl)-5,6-difluoro-1′,2′,3′,4′,5′,6′-hexahydro-[2,4′]bipyridinyl-3-yl}-isonicotinamide]
≥ 80%: all assays above

O=C(Nc1c(C2CCN(Cc3ccc(-c4ccc(F)cc4)cc3)CC2)nc(Cl)c(Cl)c1Cl)c1ccnc(Cl)c1 [Compound C30, 2-chloro-N-{4,5,6-trichloro-1′-(4′-fluoro-biphenyl-4-ylmethyl)-1′,2′,3′,4′,5′,6′-hexahydro-[2,4′]bipyridinyl-3-yl}-isonicotinamide]
≥ 80%: all assays above

O=C(Nc1cc(F)c(F)cc1C1CCN(Cc2ccc(-c3ccc(F)cc3)cc2)CC1)c1ccnc(Cl)c1 [Compound A3, 2-chloro-N-{4,5-difluoro-2-[1-(4′-fluoro-biphenyl-4-ylmethyl)-piperidin-4-yl]-phenyl}-isonicotinamide]
≥ 80%: all assays above

O=C(Nc1ccc(C(F)(F)F)cc1C1CCN(Cc2ccc(-c3ccc(Cl)cc3Cl)cc2)CC1)c1ccnc(Cl)c1 [Compound F1]
≥ 80%: all assays above

C=Cc1ccc(NC(=O)c2ccnc(Cl)c2)c(C2CCN(Cc3ccc(-c4ccc(F)cc4)cc3)CC2)n1 [Compound C11, 2-chloro-N-[1′-(4′-fluoro-biphenyl-4-ylmethyl)-6-vinyl-1′,2′,3′,4′,5′,6′-hexahydro-[2,4′]bipyridinyl-3-yl]-isonicotinamide]
≥ 80%: all assays above

O=C(Nc1cc(F)c(F)cc1C1CC[N+]([O-])(Cc2ccc(-c3ccc(F)cc3)cc2)CC1)c1ccnc(Cl)c1 (stereo not drawn) [Compound B1, 2-chloro-N-{4,5-difluoro-2-[1-(4′-fluoro-biphenyl-4-ylmethyl)-1-oxy-piperidin-4-yl]-phenyl}-isonicotinamide]
≥ 80%: all assays above

O=C(Nc1cc(F)c(Cl)nc1C1CCN(Cc2ccc(-c3ccc(F)cc3)cc2)CC1)c1ccnc(Cl)c1 [Compound C17, 2-chloro-N-[6-chloro-5-fluoro-1′-(4′-fluoro-biphenyl-4-ylmethyl)-1′,2′,3′,4′,5′,6′-hexahydro-[2,4′]bipyridinyl-3-yl]-isonicotinamide]
≥ 80%: all assays above

O=C(Nc1ccc(C(F)(F)F)nc1C1CC[N+](O)(Cc2ccc(-c3ccc(F)cc3)cc2)CC1)c1ccnc(Cl)c1 (stereo not drawn) [Compound K1, 2-chloro-N-[1′-(4′-fluoro-biphenyl-4-ylmethyl)-1′-oxy-6-trifluoromethyl-1′,2′,3′,4′,5′,6′-hexahydro-[2,4′]bipyridinyl-3-yl]-isonicotinamide 3-hydroxypropyl sulfonate salt]
≥ 80%: all assays above

Cc1cc(NC(=O)c2ccnc(Cl)c2)c(C2CCN(Cc3ccc(-c4ccc(F)cc4)cc3)CC2)nc1Cl [Compound C26, 2-chloro-N-[6-chloro-1′-(4′-fluoro-biphenyl-4-ylmethyl)-5-methyl-1′,2′,3′,4′,5′,6′-hexahydro-[2,4′]bipyridinyl-3-yl]-isonicotinamide]
≥ 80%: all assays above

O=C(Nc1cc(Br)c(Cl)nc1C1CCN(Cc2ccc(-c3ccc(F)cc3)cc2)CC1)c1ccnc(Cl)c1 [Compound C24, N-[5-bromo-6-chloro-1′-(4′-fluoro-biphenyl-4-ylmethyl)-1′,2′,3′,4′,5′,6′-hexahydro-[2,4′]bipyridinyl-3-yl]-2-chloro-isonicotinamide]
≥ 80%: all assays above

O=C(Nc1ccc(C(F)(F)F)nc1C1CC[N+]([O-])(Cc2ccc(-c3ccc(F)cc3)cc2)CC1)c1ccnc(Cl)c1 (stereo not drawn) [Compound D1, 2-chloro-N-[1′-(4′-fluoro-biphenyl-4-ylmethyl)-1′-oxy-6-trifluoromethyl-1′,2′,3′,4′,5′,6′-hexahydro-[2,4′]bipyridinyl-3-yl]-isonicotinamide]
≥ 80%: all assays above
